{"source": "DBAASP", "test_in_all_cases": "≥ marks a high value that may be exact or a test limit, other limits are often not marked, values filed in µg/mL are converted to µM", "key": {"[1]": {"tested_on": "Candida albicans KCCM 11282"}, "[2]": {"tested_on": "Miamiensis avidus"}, "[3]": {"tested_on": "Vibrio tapetis KCTC 12728"}, "[4]": {"tested_on": "Streptococcus iniae"}, "[5]": {"tested_on": "Edwardsiella tarda"}, "[6]": {"tested_on": "Saccharomyces cerevisiae KCCM 11293"}, "[7]": {"tested_on": "Escherichia coli"}, "[8]": {"tested_on": "Pseudomonas aeruginosa ATCC 15422"}, "[9]": {"tested_on": "Staphylococcus aureus ATCC 6538"}, "[10]": {"tested_on": "Bacillus subtilis CCT 2576"}, "[11]": {"tested_on": "Escherichia coli ATCC 25922"}, "[12]": {"tested_on": "Escherichia coli ATCC 8739"}, "[13]": {"tested_on": "Trichophyton mentagrophytes"}, "[14]": {"tested_on": "Candida parapsilosis ATCC 22019"}, "[15]": {"tested_on": "Staphylococcus aureus ATCC 25923"}, "[16]": {"tested_on": "Trichophyton rubrum"}, "[17]": {"tested_on": "Staphylococcus aureus ATCC 12598"}, "[18]": {"tested_on": "Acinetobacter baumannii ATCC BAA-1605"}, "[19]": {"tested_on": "Klebsiella aerogenes ATCC 13048"}, "[20]": {"tested_on": "Enterococcus faecium ATCC 700221"}, "[21]": {"tested_on": "Enterococcus faecalis ATCC 29212"}, "[22]": {"tested_on": "Acinetobacter baumannii ATCC 19606"}, "[23]": {"tested_on": "Staphylococcus aureus ATCC 9144"}, "[24]": {"tested_on": "Klebsiella pneumoniae ATCC 700603"}, "[25]": {"tested_on": "Pseudomonas aeruginosa ATCC 9027"}, "[26]": {"tested_on": "Staphylococcus aureus ATCC 33591"}, "[27]": {"tested_on": "Klebsiella pneumoniae ATCC 13883"}, "[28]": {"tested_on": "Staphylococcus epidermidis ATCC 12228"}, "[29]": {"tested_on": "Staphylococcus aureus"}, "[30]": {"tested_on": "Pseudomonas aeruginosa 1"}, "[31]": {"tested_on": "Enterococcus faecium ATCC 19434"}, "[32]": {"tested_on": "Trichophyton rubrum KCTC 6345"}, "[33]": {"tested_on": "Salmonella typhimurium ATCC 19430"}, "[34]": {"tested_on": "Candida albicans ATCC 90028"}, "[35]": {"tested_on": "Trichosporon beigelii KCTC 7707"}, "[36]": {"tested_on": "Escherichia coli O157:H7 ATCC 43895"}, "[37]": {"tested_on": "Pseudomonas aeruginosa ATCC 27853"}, "[38]": {"tested_on": "Pseudomonas aeruginosa 2"}, "[39]": {"tested_on": "Escherichia coli ATCC 32218"}, "[40]": {"tested_on": "Staphylococcus aureus ATCC 29213"}, "[41]": {"tested_on": "Escherichia coli AB94012"}, "[42]": {"tested_on": "Pseudomonas aeruginosa AB93066"}, "[43]": {"tested_on": "Staphylococcus aureus P1374"}, "[44]": {"tested_on": "Staphylococcus aureus AB94004"}, "[45]": {"tested_on": "Staphylococcus aureus P1381"}}}
{"compound": "CC[C@H](C)[C@H](NC(=O)[C@H](C)NC(=O)[C@H](Cc1cnc[nH]1)NC(=O)CNC(=O)[C@@H](NC(=O)CNC(=O)[C@H](Cc1cnc[nH]1)NC(=O)[C@H](CC(C)C)NC(=O)[C@H](CC(C)C)NC(=O)[C@H](CCSC)NC(=O)CNC(=O)[C@H](CC(C)C)NC(=O)[C@@H](N)Cc1ccccc1)C(C)C)C(=O)N[C@@H](Cc1cnc[nH]1)C(=O)NCC(=O)N[C@@H](CC(C)C)C(=O)N[C@H](C(=O)N[C@@H](Cc1cnc[nH]1)C(=O)NCC(=O)N[C@@H](CCCCN)C(=O)N[C@@H](CCC(N)=O)C(=O)N[C@@H](CC(N)=O)C(=O)N[C@H](C(=O)N[C@@H](CCC(=O)O)C(=O)O)C(C)C)[C@@H](C)CC", "note": "[FLGMLLHGVGHAIHGLIHGKQNVE]", "values": [{"measurement": "MIC", "setting": "[1]", "value": 22.5, "unit": "µM"}, {"measurement": "MIC", "setting": "[2]", "value": 0.4, "unit": "µM"}, {"measurement": "MIC", "setting": "[3]", "value": 22.5, "unit": "µM"}, {"measurement": "MIC", "setting": "[4]", "value": "≥ 45", "unit": "µM"}, {"measurement": "MIC", "setting": "[5]", "value": "≥ 90", "unit": "µM"}, {"measurement": "MIC", "setting": "[6]", "value": 11.2, "unit": "µM"}, {"measurement": "MIC", "setting": "[7]", "value": 45, "unit": "µM"}]}
{"compound": "CC[C@H](C)[C@H](N)C(=O)N[C@@H](CC(N)=O)C(=O)N[C@@H](Cc1c[nH]c2ccccc12)C(=O)N[C@@H](CCCCN)C(=O)N[C@@H](CCCCN)C(=O)N[C@@H](CCSC)C(=O)N[C@@H](C)C(=O)N[C@@H](C)C(=O)N[C@H](C(=O)N[C@@H](C)C(=O)N[C@@H](CC(C)C)C(=O)N[C@@H](CCCCN)C(=O)N[C@@H](CCSC)C(=O)N[C@H](C(N)=O)[C@@H](C)CC)[C@@H](C)O", "note": "[INWKKMAATALKMI]", "values": [{"measurement": "MIC", "setting": "[8]", "value": 9.64, "unit": "µM"}, {"measurement": "MIC", "setting": "[9]", "value": 1.79, "unit": "µM"}, {"measurement": "MIC", "setting": "[10]", "value": 2.16, "unit": "µM"}, {"measurement": "MIC", "setting": "[11]", "value": 2.41, "unit": "µM"}]}
{"compound": "CSCC[C@H](NC(=O)[C@H](CO)NC(=O)[C@H](C)NC(=O)[C@H](C)NC(=O)[C@H](C)NC(=O)[C@H](C)NC(=O)[C@H](C)NC(=O)[C@H](C)NC(=O)[C@H](C)NC(=O)[C@H](CC(N)=O)NC(=O)[C@H](C)NC(=O)[C@H](C)NC(=O)[C@@H](NC(=O)[C@H](CC(C)C)NC(=O)[C@H](C)NC(=O)[C@H](C)NC(=O)[C@H](C)NC(=O)[C@H](C)NC(=O)[C@H](C)NC(=O)[C@H](C)NC(=O)[C@H](CC(=O)O)NC(=O)[C@H](CO)NC(=O)[C@H](C)NC(=O)[C@@H](NC(=O)[C@@H](N)Cc1cnc[nH]1)[C@@H](C)O)[C@@H](C)O)C(=O)N[C@@H](C)C(=O)O", "note": "[HTASDAAAAAALTAANAAAAAAASMA]", "values": [{"measurement": "MIC", "setting": "[12]", "value": 30, "unit": "µM"}, {"measurement": "MIC", "setting": "[13]", "value": "≥ 115", "unit": "µM"}, {"measurement": "MIC", "setting": "[14]", "value": "≥ 115", "unit": "µM"}, {"measurement": "MIC", "setting": "[15]", "value": "> 115", "unit": "µM"}, {"measurement": "MIC", "setting": "[16]", "value": "≥ 115", "unit": "µM"}]}
{"compound": "CC[C@H](C)[C@H](NC(=O)[C@H](CCCN=C(N)N)NC(=O)[C@H](CCC(N)=O)NC(=O)[C@@H](NC(=O)[C@@H](NC(=O)[C@H](CCCN=C(N)N)NC(=O)[C@H](CCCCN)NC(C)=O)[C@@H](C)CC)C(C)C)C(=O)N[C@@H](CCCCN)C(=O)N[C@@H](CC(=O)O)C(=O)N[C@@H](Cc1ccccc1)C(=O)N[C@@H](CC(C)C)C(=O)N[C@@H](CCCN=C(N)N)C(N)=O", "note": "[KRIVQRIKDFLR]", "values": [{"measurement": "MIC", "setting": "[17]", "value": "≥ 163", "unit": "µM"}, {"measurement": "MIC", "setting": "[18]", "value": "≥ 163", "unit": "µM"}, {"measurement": "MIC", "setting": "[19]", "value": "≥ 163", "unit": "µM"}, {"measurement": "MIC", "setting": "[20]", "value": 10.2, "unit": "µM"}, {"measurement": "MIC", "setting": "[21]", "value": "≥ 81.4", "unit": "µM"}, {"measurement": "MIC", "setting": "[22]", "value": "≥ 163", "unit": "µM"}, {"measurement": "MIC", "setting": "[23]", "value": "≥ 163", "unit": "µM"}, {"measurement": "MIC", "setting": "[24]", "value": 163, "unit": "µM"}, {"measurement": "MIC", "setting": "[25]", "value": 40.7, "unit": "µM"}, {"measurement": "MIC", "setting": "[9]", "value": 163, "unit": "µM"}, {"measurement": "MIC", "setting": "[26]", "value": "≥ 163", "unit": "µM"}, {"measurement": "MIC", "setting": "[27]", "value": "≥ 163", "unit": "µM"}, {"measurement": "MIC", "setting": "[28]", "value": "≥ 163", "unit": "µM"}]}
{"compound": "CC[C@H](C)[C@H](NC(=O)[C@H](CCCN=C(N)N)NC(=O)CNC(=O)[C@@H](NC(=O)[C@@H]1CCCN1C(=O)[C@H](Cc1ccccc1)NC(=O)[C@H](CCC(N)=O)NC(=O)[C@H](CC(C)C)NC(=O)CNC(=O)[C@H](C)N)C(C)C)C(=O)NCC(=O)N[C@@H](CCCN=C(N)N)C(=O)N[C@@H](CC(C)C)C(=O)N[C@@H](CC(C)C)C(=O)N[C@@H](CCCN=C(N)N)C(=O)N[C@@H](CCCCN)C(=O)O", "note": "[AGLQFPVGRIGRLLRK]", "values": [{"measurement": "MIC", "setting": "[29]", "value": 12.5, "unit": "µM"}, {"measurement": "MIC", "setting": "[30]", "value": 6.3, "unit": "µM"}, {"measurement": "MIC", "setting": "[31]", "value": 12.5, "unit": "µM"}, {"measurement": "MIC", "setting": "[32]", "value": 6.3, "unit": "µM"}, {"measurement": "MIC", "setting": "[33]", "value": 12.5, "unit": "µM"}, {"measurement": "MIC", "setting": "[34]", "value": 6.3, "unit": "µM"}, {"measurement": "MIC", "setting": "[14]", "value": 12.5, "unit": "µM"}, {"measurement": "MIC", "setting": "[35]", "value": 6.3, "unit": "µM"}, {"measurement": "MIC", "setting": "[15]", "value": 25, "unit": "µM"}, {"measurement": "MIC", "setting": "[36]", "value": 6.3, "unit": "µM"}, {"measurement": "MIC", "setting": "[37]", "value": 12.5, "unit": "µM"}, {"measurement": "MIC", "setting": "[38]", "value": 12.5, "unit": "µM"}]}
{"compound": "CC(C)C[C@H](NC(=O)[C@H](C)N)C(=O)N[C@@H](CCCCN)C(=O)N[C@@H](Cc1ccc(O)cc1)C(=O)N[C@@H](CCCN=C(N)N)C(=O)N[C@@H](CC(C)C)C(=O)N[C@@H](Cc1ccccc1)C(=O)N[C@@H](CCCCN)C(=O)N[C@@H](CCCCN)C(=O)N[C@@H](CC(C)C)C(=O)N[C@@H](CCCCN)C(=O)N[C@@H](CCCCN)C(=O)N[C@@H](Cc1ccccc1)C(=O)O", "note": "[ALKYRLFKKLKKF]", "values": [{"measurement": "MIC", "setting": "[21]", "value": 1.19, "unit": "µM"}, {"measurement": "MIC", "setting": "[39]", "value": "≥ 35.6", "unit": "µM"}, {"measurement": "MIC", "setting": "[40]", "value": 0.594, "unit": "µM"}]}
{"compound": "CC[C@H](C)[C@H](NC(=O)[C@H](CO)NC(=O)[C@H](CCCCN)NC(=O)[C@@H](NC(=O)CNC(=O)[C@H](CCCCN)NC(=O)[C@H](Cc1c[nH]c2ccccc12)NC(=O)[C@H](CC(C)C)NC(=O)[C@H](CCCCN)NC(=O)CNC(=O)[C@H](CC(C)C)NC(=O)[C@@H](NC(=O)[C@@H](N)Cc1ccccc1)[C@@H](C)CC)C(C)C)C(=O)N[C@@H](Cc1ccccc1)C(N)=O", "note": "[FILGKLWKGVKSIF]", "values": [{"measurement": "MIC", "setting": "[41]", "value": 15.3, "unit": "µM"}, {"measurement": "MIC", "setting": "[42]", "value": 30.6, "unit": "µM"}, {"measurement": "MIC", "setting": "[25]", "value": 30.6, "unit": "µM"}, {"measurement": "MIC", "setting": "[9]", "value": 3.82, "unit": "µM"}, {"measurement": "MIC", "setting": "[43]", "value": 7.64, "unit": "µM"}, {"measurement": "MIC", "setting": "[44]", "value": 3.82, "unit": "µM"}, {"measurement": "MIC", "setting": "[45]", "value": 7.64, "unit": "µM"}, {"measurement": "MIC", "setting": "[11]", "value": 30.6, "unit": "µM"}, {"measurement": "MIC", "setting": "[15]", "value": 3.82, "unit": "µM"}]}
